Key:
[1] = system: Pseudomonas aeruginosa (ATCC 9027); test: Minimum inhibitory concentration and synergy index in nutrient agar, visual test for growth; format: cell-based; settings: 48 hours at 30° C.; for Synergy index Qa/QA + Qb/QB: method of Kull et al.
Method: (§1) The synergism of a combination of MIT with diiodomethyl p-tolyl sulphone was tested. Test organisms used were the Gram-negative bacterium Pseudomonas aeruginosa (ATCC 9027) and the mould Aspergillus niger (ATCC16404). For the purpose of the test, mixtures containing different concentrations of MIT and diiodomethyl p-tolyl sulphone were prepared and tested for their action on Pseudomonas aeruginosa and Aspergillus niger respectively. The active compound mixtures in the corresponding concentrations were introduced into selective nutrient media (nutrient agar for Pseudomonas aeruginosa and Sabouraud glucose agar for Aspergillus niger) and the test organisms were likewise incorporated into the agar. The cell density in the agar was in each case 10^6 microbes per ml in the case of Pseudomonas aeruginosa and 10^5 spores per ml in for Aspergillus niger.
(§2) The incubation time is 48 hours (bacteria) or 72 hours (moulds) at 30° C. and 25° C. respectively. This was followed by visual testing for growth of Pseudomonas aeruginosa and Aspergillus niger. In the case of Pseudomonas aeruginosa, growth was apparent by hazing or greenish coloration of the nutrient medium, or by formation of colonies on the surface of the agar. In the case of Aspergillus niger, the growth was apparent through the formation of colonies or mycelia on the surface of the agar. In this way the minimum inhibitory concentrations (MICs) of the two active compounds were determined, individually and in combination. The MIC is the concentration at which there is no longer any hazing, colouring of the agar or colony formation on the surface of the agar (Pseudomonas aeruginosa) and no formation of colonies or mycelia on the surface of the agar (Aspergillus niger).
(§3) The synergism that occurred was presented numerically by calculation of the synergy index (SI). This calculation was made using the common method of F. C. Kull et al., Applied Microbiology, vol. 9 (1961), p. 538. SI is calculated there in accordance with the following formula:
(§4) Synergy index SI=Qa/QA+Qb/QB
(§5) In the application of this formula to the MIT+DIMTS biocide system tested here, the variables in the formula have the following definition:
(§6) Qa=concentration of MIT in the mixture of diiodomethyl p-tolyl sulphone+MIT QA=concentration of MIT as sole biocide Qb=concentration of diiodomethyl p-tolyl sulphone in the biocide mixture QB=concentration of diiodomethyl p-tolyl sulphone as sole biocide
(§7) If the synergy index has a value of more than 1, this means that there is an antagonism.
(§8) If the synergy index adopts a value of 1, this means that the action of the two biocides is additive. If the synergy index takes on a value of below 1, this means that there is synergism of the two biocides.

[2] = system: Aspergillus niger (ATCC16404); test: Minimum inhibitory concentration and synergy index in Sabouraud glucose agar, visual test for growth; format: cell-based; settings: 72 hours at 25° C.; for Synergy index Qa/QA + Qb/QB: method of Kull et al.
Method: as §1, §2, §3, §4, §5, §6, §7, §8

[3] = concentration of MIT (sole or in the mixture) which shows an endpoint
[4] = concentration of DIMTS (sole or in the mixture) that shows an endpoint

SMILES	Synergy index Qa/QA + Qb/QB [1]	MHK Qa (MIT) [1, 3] [ppm]	Synergy index Qa/QA + Qb/QB [2]	MHK Qa (MIT) [2, 3] [ppm]	MHK Qb (DIMTS) [1, 4] [ppm]	MHK Qb (DIMTS) [2, 4] [ppm]
Cn1sccc1=O [MIT, 2-methylisothiazolin-3-one]	1.00	40	1.00	800	–	–
Cc1ccc(S(=O)(=O)C(I)I)cc1 [DIMTS, diiodomethyl p-tolyl sulphone]	1.00	–	1.00	–	1250	10

Reference: patent US20100189811A1, “Biocide compositions comprising 3-methylisothiazolin-3-one and a haloalkyl sulphone” (THOR GmbH, priority 2009, published 2010)
